# Measured values published in patent US8680153B2, “Method for correcting a lipid imbalance in a subject” (The Royal Institution for the Advancement of …, priority 2005, dated 2014).
# Assays:
# ceramide levels [1] = assay: Plasma ceramide levels, biweekly treatment for 4 weeks; assay type: in vivo; conditions: Cftr-KO mice, 4 weeks of biweekly treatment, p<0.05
# Experimental: Fenretinide Diet Supplementation. Examples 2 to 6: fenretinide (Sigma-Aldrich, Oakville, ON) powder was resuspended in 95% ethanol and subsequently incorporated in the Peptamen liquid diet. It was protected from light and kept at 4° C. before being given to the mice (5 mg/kg per day per mouse). Mock-treated diets were prepared similarly by adding ethanol to the Peptamen diet but omitting the fenretinide supplementation. The diet was given every morning for 28 consecutive days with specific monitoring of the quantity consumed by the mice in each cage. Examples 7 to 12: fenretinide powder was kindly provided by Dr. Robert Smith (NIH; Bethesda, Md., USA). Fenretinide was resuspended in 95% ethanol to make a 2 μg/μL concentration. Approximately 40 μL of this preparation was incorporated into the Peptamen liquid diet (5 mg/kg per day per mouse). […] During the treatment period each mouse was kept in a separate cage (including WT mice) and was monitored to ensure that the entire amount of Peptamen containing the fenretinide or with out was consumed. […]
# Ceramide/Sphingolipids analysis. The concentration of ceramide in the (lung, liver, ileum, pancreas homogenates) and plasma from mice and humans were determined by ELISA^39;40 on separated lipids samples by thin layer chromatography, as described above. […]
# [2] = cited from earlier work
# alveolar cells = assay: Alveolar (inflammatory) cells in bronchoalveolar lavage fluid of infected mice; assay type: in vivo
# Experimental: Mouse Lung Infection. Mice were anaesthetized with a combination of ketamine (7.5 mg/mL) and xylazine (0.5 mg/mL) administered intraperitoneally at a dose of 20 mL/kg of body weight. Once the mouse was successfully anaesthetized, the animal was installed under binoculars (Microscope M650, Wild Leitz, Willowdale, ON) in the vertical position and held on a restraining board by holding the animal by its upper incisor teeth (Guilbault, et al. (2005) supra). The tongue was then gently pulled to the side of the mouth and a 26-G gavage needle was inserted into the mouth and guided through the pharynx gently touching the vocal cords to see the lumen of the trachea; the needle was then introduced into the trachea to reach the lung for the bilateral injection of the 50 microliter inoculum. After inoculation, the animal regained righting reflex within an hour. A final dose of 1×10^6 P. aeruginosa was used for infection using wild-type and Cftr-KO mice. Mice were monitored 3 times daily; the maximum weight loss allowed was 15%. Mice were sacrificed by CO2 overdose.
# Bronchoalveolar Lavage. Circulation was flushed by slow intracardiac infusion of divalent cation-free Hank's balanced salt solution (HBSS; INVITROGEN™, Mississauga, ON). The trachea was cannulated with a 22-gauge intravenous catheter placement unit (CRITIKON®, GE Medical Systems, Tampa, Fla.) connected to two 5 mL syringes via a 3-way stopcock with a rotating collar (Namic U.S.A., Glens Falls, N.Y.). The alveoli of infected mice were washed 3 times with 1.4 mL of divalent cation-free HBSS. The volume of bronchoalveolar lavage fluid recovered was approximately 1.2 mL. […] Cells were resuspended in 0.5 mL of Dulbecco's Modified Eagle Medium (DMEM; INVITROGEN™) supplemented with 10% fetal bovine serum (FBS; Hyclone, Logan, Utah), diluted in Turk's solution and counted using a hematocytometer. The proportions of macrophages, lymphocytes and PMN were calculated after counting approximately 300 alveolar cells on cytospin preparations stained with DIFF-QUICK® stain (American Scientific Products, McGaw Park, Ill.).
# ceramide levels [3] = assay: Ceramide levels by ELISA in lung and plasma of P. aeruginosa-infected mice; assay type: in vivo
# Experimental: Fenretinide Diet Supplementation. Examples 2 to 6: fenretinide (Sigma-Aldrich, Oakville, ON) powder was resuspended in 95% ethanol and subsequently incorporated in the Peptamen liquid diet. It was protected from light and kept at 4° C. before being given to the mice (5 mg/kg per day per mouse). Mock-treated diets were prepared similarly by adding ethanol to the Peptamen diet but omitting the fenretinide supplementation. The diet was given every morning for 28 consecutive days with specific monitoring of the quantity consumed by the mice in each cage. Examples 7 to 12: fenretinide powder was kindly provided by Dr. Robert Smith (NIH; Bethesda, Md., USA). Fenretinide was resuspended in 95% ethanol to make a 2 μg/μL concentration. Approximately 40 μL of this preparation was incorporated into the Peptamen liquid diet (5 mg/kg per day per mouse). The prepared food containing fenretinide was then stored in the dark at 4° C. for no more than 3 hours prior to being administered to the mice. To ensure that the entire drug dose was consumed, the mice were given 10 mL of fenretinide-treated Peptamen, which represents ⅔ of the daily mouse food consumption, in the late afternoon. […] During the treatment period each mouse was kept in a separate cage (including WT mice) and was monitored to ensure that the entire amount of Peptamen containing the fenretinide or with out was consumed. […]
structure (smiles),measurement,setting,value
"CC1=C(/C=C/C(C)=C/C=C/C(C)=C/C(=O)Nc2ccc(O)cc2)C(C)(C)CCC1 [fenretinide, all-trans-N-(4-hydroxyphenyl) retinamide]","Ceramide levels, increase vs untreated Cftr-KO",ceramide levels [1],5.9 fold
same,Generalized vascular damage in humans,[2]; clinical trials (Reynolds and Lemons 2001),does not induce generalized vascular damage
same,Reversibility of side effects following discontinuation of the treatment,[2]; neuroblastoma subjects 2-21 years (Garaventa 2003),≤ 7 days
same,Subjects in whom side effects occurred,"[2]; neuroblastoma subjects 2-21 years, oral once a day in 28-day courses (Garaventa 2003)",15 of the 45
same,Mean total number of alveolar cells in the lungs,"alveolar cells; Cftr-KO mice, day 3 post-infection (p=0.530 vs mock-treated)",1.1×10^6±1.3×10^6
same,Effect on cells recruited into the lungs of infected mice vs mock-treated,"alveolar cells; day 3 post-infection, wild-type and Cftr-KO, neutrophils, monocytes, lymphocytes",no effect
same,Mean total number of alveolar cells in the lungs,"alveolar cells; wild-type mice, day 3 post-infection (p=0.280 vs mock-treated)",1.2×10^6±1.0×10^6
same,Increase in ceramide levels vs mock-treated controls,ceramide levels [3]; P. aeruginosa-infected Cftr-KO mice,approximately 7 fold
same,Increase in ceramide levels vs untreated counterparts,ceramide levels [3]; P. aeruginosa-infected WT mice,approx. 2 fold
